“And” between values parts separate entries of the source, which are not always exact repeats. Identical values can stand only once. Toxic doses and inconclusive results are not listed. Cut-off read from the data, not from the text of the source: active = T/C of 150% or more; inactive = T/C below 125%.
Test system: L1210 leukemia ip in BDF1 mice, survival T/C
Test: NCI In Vivo Anticancer Drug Screen. Data for tumor model L1210 Leukemia (intraperitoneal) in B6D2F1 (BDF1) mice
Settings: endpoint: mean survival time, higher = longer survival
In short: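 Tumor was transplanted into mice, which were then dosed with test compound or vehicle alone. Survival was recorded for each group, and the treated figure was expressed relative to the control figure.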

[1] = dose: 100.0 mg/kg/injection, schedule: Q01DX009 (ip), vehicle: Klucel (hydroxypropylcellulose) (HPC)
[2] = dose: 100.0 mg/kg/injection, schedule: Q04DX003 (ip), vehicle: Klucel (hydroxypropylcellulose) (HPC)
[3] = dose: 200.0 mg/kg/injection, schedule: Q01DX009 (ip), vehicle: Klucel (hydroxypropylcellulose) (HPC)
[4] = dose: 200.0 mg/kg/injection, schedule: Q04DX003 (ip), vehicle: Klucel (hydroxypropylcellulose) (HPC)
[5] = dose: 400.0 mg/kg/injection, schedule: Q01DX009 (ip), vehicle: Klucel (hydroxypropylcellulose) (HPC)
[6] = dose: 400.0 mg/kg/injection, schedule: Q04DX003 (ip), vehicle: Klucel (hydroxypropylcellulose) (HPC)
[7] = dose: 100.0 mg/kg/injection, schedule: Q01DX001 (ip), vehicle: saline with Tween-80
[8] = dose: 200.0 mg/kg/injection, schedule: Q01DX001 (ip), vehicle: saline with Tween-80
[9] = dose: 400.0 mg/kg/injection, schedule: Q01DX001 (ip), vehicle: saline with Tween-80

Measured: T/C

ClC1(c2ccccc2)c2ccc(Br)cc2-c2cc(Br)ccc21
inactive: [1] 103 % of control | [2] 104 % of control | [3] 100 % of control | [4] 107 % of control | [5] 108 % of control | [6] 94 % of control

COc1ccc(CCN2C(=O)c3cccc4c([N+](=O)[O-])ccc(c34)C2=O)cc1OC
inactive: [1] 100 % of control | [3] 94 % of control | [5] 93 % of control

O=C(CCl)N1C(=O)CC(c2ccccc2)C1=O (stereo not drawn)
inactive: dose: 100.0 mg/kg/injection, schedule: Q04DX002 (ip), vehicle: saline with Tween-80 101 % of control | dose: 200.0 mg/kg/injection, schedule: Q04DX002 (ip), vehicle: saline with Tween-80 97 % of control | dose: 400.0 mg/kg/injection, schedule: Q04DX002 (ip), vehicle: saline with Tween-80 95 % of control

O=C(CS(=O)(=O)O)Nc1ccccc1 (tested in a mixture with another compound)
inactive: [7] 93 % of control | [8] 103 % of control | [9] 90 % of control

CC(=O)OCC(OC(C)=O)C(OC(C)=O)C(OC(C)=O)C(COC(=O)c1ccccc1)OC(=O)c1ccccc1 (stereo not drawn)
inactive: [7] 108 % of control | [8] 89 % of control | [9] 104 % of control

COc1c(NC(=O)c2ccccc2Cl)cccc1[N+](=O)[O-]
inactive: dose: 25.0 mg/kg/injection, schedule: Q01DX009 (ip), vehicle: Klucel (hydroxypropylcellulose) (HPC) 100 % of control | dose: 50.0 mg/kg/injection, schedule: Q01DX009 (ip), vehicle: Klucel (hydroxypropylcellulose) (HPC) 88 % of control | [1] 91 % of control and 92 % of control

O=S(=O)(/C=C/c1ccccc1)c1ccc(F)cc1
inactive: dose: 100.0 mg/kg/injection, schedule: Q01DX001 (ip), vehicle: acetone 97 % of control | dose: 100.0 mg/kg/injection, schedule: Q01DX009 (ip), vehicle: acetone 88 % of control | dose: 200.0 mg/kg/injection, schedule: Q01DX001 (ip), vehicle: acetone 95 % of control | dose: 400.0 mg/kg/injection, schedule: Q01DX001 (ip), vehicle: acetone 95 % of control

CC(=O)OC1CCC2(C)C(CCC3C2CCC2(C)C(C(C)CCO)CCC32)C1 (stereo not drawn)
inactive: dose: 100.0 mg/kg/injection, schedule: Q04DX003 (sc), vehicle: steriod suspending solution 95 % of control | dose: 200.0 mg/kg/injection, schedule: Q04DX003 (sc), vehicle: steriod suspending solution 104 % of control | dose: 400.0 mg/kg/injection, schedule: Q04DX003 (sc), vehicle: steriod suspending solution 100 % of control

O=CNc1ccccc1Sc1ccc(C(=O)O)cc1[N+](=O)[O-]
inactive: [2] 100 % of control | [4] 107 % of control | [6] 104 % of control

O=C(Nc1cccc(Cl)c1Cl)Sc1ccccc1O
inactive: [1] 104 % of control | [3] 97 % of control

NC(=O)N/N=C1\CCCC(OC(=O)c2ccccc2)CC1 (stereo not drawn)
inactive: [1] 97 % of control | [2] 97 % of control | [3] 97 % of control | [4] 102 % of control | [5] 94 % of control | [6] 96 % of control

OC(C/C(CNNc1ccccc1)=N/Nc1ccccc1)(C(F)(F)F)C(F)(F)F
inactive: [2] 96 % of control | [4] 103 % of control | [6] 92 % of control

CC(C)(C)CC(C)(C)c1ccc(OCCOCCSC(=N)N)cc1
inactive: dose: 50.0 mg/kg/injection, schedule: Q01DX001 (ip), vehicle: carboxymethylcellulose (CMC) 93 % of control | dose: 100.0 mg/kg/injection, schedule: Q01DX001 (ip), vehicle: carboxymethylcellulose (CMC) 98 % of control

Nc1ncnc2c1ncn2C1OC(COP(=O)(O)O)C(O)C1O (stereo not drawn)
inactive: dose: 9.4 mg/kg/injection, schedule: Q03HX016 (ip), vehicle: water 108 % of control | dose: 9.4 mg/kg/injection, schedule: Q03HX024 (ip), vehicle: water 104 % of control | dose: 18.8 mg/kg/injection, schedule: Q03HX016 (ip), vehicle: water 108 % of control | dose: 18.8 mg/kg/injection, schedule: Q03HX024 (ip), vehicle: water 106 % of control | dose: 37.5 mg/kg/injection, schedule: Q03HX016 (ip), vehicle: water 108 % of control | dose: 37.5 mg/kg/injection, schedule: Q03HX024 (ip), vehicle: water 110 % of control | dose: 75.0 mg/kg/injection, schedule: Q03HX016 (ip), vehicle: water 116 % of control | dose: 75.0 mg/kg/injection, schedule: Q03HX024 (ip), vehicle: water 115 % of control | dose: 100.0 mg/kg/injection, schedule: Q01DX005 (ip), vehicle: saline 98 % of control | dose: 200.0 mg/kg/injection, schedule: Q01DX005 (ip), vehicle: saline 98 % of control

COC1OCC(NC(C)=O)C(O)C1O (stereo not drawn)
inactive: dose: 50.0 mg/kg/injection, schedule: Q01DX001 (ip), vehicle: saline 102 % of control | dose: 100.0 mg/kg/injection, schedule: Q01DX001 (ip), vehicle: saline 102 % of control | dose: 200.0 mg/kg/injection, schedule: Q01DX001 (ip), vehicle: saline 100 % of control | dose: 400.0 mg/kg/injection, schedule: Q01DX001 (ip), vehicle: saline 107 % of control

c1cc[c]([Ge]([O][Ge]([c]2ccccc2)([c]2ccccc2)[c]2ccccc2)([c]2ccccc2)[c]2ccccc2)cc1
inactive: dose: 50.0 mg/kg/injection, schedule: Q01DX009 (ip), vehicle: saline with Tween-80 94 % of control | dose: 100.0 mg/kg/injection, schedule: Q01DX009 (ip), vehicle: saline with Tween-80 96 % of control | dose: 200.0 mg/kg/injection, schedule: Q01DX009 (ip), vehicle: saline with Tween-80 96 % of control

OC12CC(C(F)(F)F)(C(F)(F)F)OC1(O)CC(C(F)(F)F)(C(F)(F)F)O2 (stereo not drawn)
inactive: dose: 100.0 mg/kg/injection, schedule: Q04DX003 (ip), vehicle: saline with Tween-80 94 % of control | dose: 200.0 mg/kg/injection, schedule: Q04DX003 (ip), vehicle: saline with Tween-80 89 % of control

O=C(O)c1cccc(NC(C(=O)c2ccccc2)c2ccccc2)c1 (stereo not drawn)
inactive: dose: 50.0 mg/kg/injection, schedule: Q01DX001 (ip), vehicle: Klucel (hydroxypropylcellulose) (HPC) 102 % of control | dose: 100.0 mg/kg/injection, schedule: Q01DX001 (ip), vehicle: Klucel (hydroxypropylcellulose) (HPC) 102 % of control | dose: 200.0 mg/kg/injection, schedule: Q01DX001 (ip), vehicle: Klucel (hydroxypropylcellulose) (HPC) 102 % of control

CC(N)C12CC3CC(CC(C3)C1)C2 (stereo not drawn)
inactive: dose: 75.0 mg/kg/injection, schedule: Q01DX009 (ip), vehicle: saline 94 % of control

CCCC(=O)c1ccc2oc3ccccc3c2c1
inactive: [1] 100 % of control | [2] 102 % of control | [3] 94 % of control | [4] 102 % of control | [5] 96 % of control | [6] 98 % of control
